Assays:
[1] = system: McA-RH7777 cells (A18-C3); test: Live imaging of lysosomal motility and lysosome-CLD interaction (kiss-and-run); format: cell-based, rat
Method: In certain non-limiting examples described herein, McA-RH7777 cells stably expressing human apoB-100 and human apoC-III (designated A18-C3) were used for the studies. […] In addition, these studies, particularly those concerning EPA- or DHA-triggered lysosomal motility and CLD degradation, were also performed using primary rat hepatocytes. Transfection of plasmids encoding proteins of interest, or transfection of siRNA specific for silencing target gene expression, was achieved using the FuGENE HP Extreme reagent (Roche). Representative gene silencing siRNA sequences, which are not meant to be limiting, are described in Table 1, and plasmids encoding proteins of interest are described in Table 2. The effectiveness of siRNA silencing was verified by Western-blotting of cellular content of the target proteins, and by intracellular localization assay using siRNA-Tracker (Mirus Bioscience). Twenty-four h after plasmid transfection, or 48 h after siRNA transfection, the cells were cultured in lipid-rich media containing fetal bovine serum (20%) and OA (0.4 mM). The lipid-laden cells were switched to fresh media supplemented with OA or EPA (0.4 mM). In live imaging experiments, LipidTOX Red (Life Technologies) and LysoTracker (Life Technologies) were added to media prior to EPA treatment, to visualize lipid droplets and lysosomes, respectively. For visualizing peroxisomes, Peroxisome-GFP (Invitrogen) was introduced to the cells 24 h prior to experiments. Quantification of cell lipid contents was achieved either by direct mass measurement (HPTLC) and counting the number of lipid droplets using Image J Lipid Droplet Counter Plug-In, or indirectly by Western blot analysis of cellular content of ADRP. Secretion of apoB and TG-rich lipoprotein was determined by Western blot analysis and metabolic labeling. Mitochondrial β-oxidation was measured using MitoSOX Red (Life Technologies) in situ. Autophagic flux was determined by using Cyto-ID assay (Enzo Life Science) and by monitoring GFP-LC3 clustering in situ. Interaction of Arl8b and subunits of the HOPS complex was determined in situ by the proximity ligation assay (Olink Biosience). Cytoplasmic pH was measured using the cytosolic pHrodo indicator reagent (Invitrogen). Live imaging of fluorescent-tagged proteins was performed 1 h post-EPA treatment. Cells were also collected at the time of EPA treatment for transmission EM and tomography, as well as immuno-EM. For movies, cells were imaged at 60 sec intervals every 5 min, for a total of 30 min.
Cells were grown on 35-mm glass bottom dishes (Ibidi GmbH München, Germany) for 16 h in DMEM supplemented with FBS (20%) and OA (0.4 mM). Cells were imaged using a Zeiss 510 META laser scanning confocal microscope with a heated CO2-controlled stage (5% CO2 at 37° C.). Images were captured at a frame-rate of 30 frame/sec using a 63×. N.A.1.4 objective. Recommended laser lines and filter combinations were used for each dye. For visualization of lipid droplets, lysosomes, mitochondria, and mitochondrial β-oxidation, the respective reagents LipidTOX Red (Invitrogen), LysoTracker (Life Technology), MitoTracker (Life Technology), MitoSox Red (Invitrogen), and Peroxisome-GFP BacMam2.0 (Invitrogen) were introduced into the cells, according to manufacturers' recommendations, prior to EPA treatment.
Cells were cultured with lipid-rich media containing OA (0.4 mM) for 16 h. The lipid-laden cells were switched to fresh media containing EPA (0.4 mM) for 1 h, and the lysosomal movement towards lipid droplets was recorded by time-lapse microscopy. Fluorescent intensity of lysosomal signals at the periphery of selected individual lipid droplet was measured using Image J Live Intensity Profiler Plug-in^31-33 over a period of 40 sec. Quantification for each condition was carried out for 60 individual lipid droplets from three independent experiments. Constant threshold was applied to all of the images in each experiment.

[2] = system: McA-RH7777 cells (A18-C3); test: Measurement of cytosolic pH (pHrodo); format: cell-based, rat; conditions: OA or EPA treatment
Method: In certain non-limiting examples described herein, McA-RH7777 cells stably expressing human apoB-100 and human apoC-III (designated A18-C3) were used for the studies. […] In addition, these studies, particularly those concerning EPA- or DHA-triggered lysosomal motility and CLD degradation, were also performed using primary rat hepatocytes. Transfection of plasmids encoding proteins of interest, or transfection of siRNA specific for silencing target gene expression, was achieved using the FuGENE HP Extreme reagent (Roche). […] Quantification of cell lipid contents was achieved either by direct mass measurement (HPTLC) and counting the number of lipid droplets using Image J Lipid Droplet Counter Plug-In, or indirectly by Western blot analysis of cellular content of ADRP. Secretion of apoB and TG-rich lipoprotein was determined by Western blot analysis and metabolic labeling. Mitochondrial β-oxidation was measured using MitoSOX Red (Life Technologies) in situ. Autophagic flux was determined by using Cyto-ID assay (Enzo Life Science) and by monitoring GFP-LC3 clustering in situ. Interaction of Arl8b and subunits of the HOPS complex was determined in situ by the proximity ligation assay (Olink Biosience). Cytoplasmic pH was measured using the cytosolic pHrodo indicator reagent (Invitrogen). […]

[3] = system: hepatic cells; test: Prolonged oleate treatment (OA-induced steatosis) of hepatic cells; format: cell-based; conditions: oleate 0.4 mM for up to 3 days
From the text: FIG. 36 illustrates that the LD content in cells cultured under lipid-rich conditions may be manipulated by expression of different forms of Arl8b. Images in the top row show position of lysosomes in cells cultured in a lipid-rich medium (i.e. supplemented with oleate) for up to 4 days. After 1-day treatment with oleate, lysosomes (stained with LysoTracker, green) were accumulated in the perinuclear regions of cells. However after 2-day oleate treatment, lysosomes were relocated towards the LDs at cell periphery. The relocation of lysosomes from the perinuclear region toward cell periphery indicates perturbed lysosomal motility under oleate-treatment conditions, which leads to prolonged association of lysosomes with LDs. Accumulation/higher interaction of lysosomes on LDs became more pronounced after 3- and 4-day treatment with oleate, with clear rings of lysosomes around LDs. Expression of the GDP-bound form of Arl8b, or Arl8b^T34N (or Arl8b “DN”, dominant negative), protects hepatocytes from accumulation of LDs upon long-term treatment with oleate. Note that even after 3 days, cells expressing Arl8b “DN” were healthy and accumulated low numbers of LDs (middle row). In contrast, expression of the GTP-bound form of Arl8b, or Arl8b^Q75L (or Arl8b “DA”, dominant active), exacerbated accumulation of LDs in cells (images in the bottom row). In fact, the cells could not tolerate long-term treatment and started to die after day 2. This situation may be similar to that in advanced levels of fatty liver, which causes hepatocyte apoptosis;
In these cells, lysosomes were continuously in contact with CLD, indicative of stalled lysosomal motility. This persistent lysosomal interaction with CLDs (i.e. “kiss” without “run”) clearly indicates the interfered process of microautophagy and lack of a mechanism in the cells, after prolonged OA treatment, that facilitates dissociation of lysosomes from CLDs, blocking the engulfment process. Thus, phenotypically, accumulation of CLD in cells cultured in lipid-rich media (e.g. supplementation with 0.4 mM OA) is invariably associated with a compromised lysosomal motility (i.e. kiss-and-run).

SMILES: CCCCCCCC/C=C\CCCCCCCC(=O)O [OA, oleic acid, reference compound]
- lysosomal motility and direct lysosomal interaction with CLD ([1]; fatty acid added to lipid-laden cells, live imaging): reduced levels of interaction between lysosomes and lipid droplets
- activation of microautolipophagy ([1]; oleate treatment): transient and is of low magnitude
- duration of the brief activation of microautolipophagy ([1]; oleate treatment): 10 to 15 min
- cytoplasmic pH [2]: neutral
- steatosis (CLD accumulation) [3]: developed severe steatosis

Reference: patent publication US11298402B2, “Lysosomal degradation of lipids and proteins and method of use thereof” (University of Ottawa, priority 2015, dated 2022)
